Read-outs that look alike come from different tables or passages of the source.
Tests used:
[1] = 50 mg/kg sc, uninfected DHP-1 mice
[2] = in vivo; details: female, 129sv DHP-1 knockout, mouse, sc, 50 mg/kg
[3] = in vitro; details: SD, rat, plasma, Plasma stability % Remaining
[4] = in vitro; details: beagle, dog, plasma
[5] = in vitro; details: human, plasma, Plasma stability % Remaining
[6] = system: E. coli; experiment: Microbial spectrum, E. coli; format: cell-based, Escherichia coli; details: clavulanate 4 μg/mL; Table S4
[7] = in vitro; details: cynomolgus monkey, plasma, pH 7.4
[8] = system: S. aureus; experiment: Microbial spectrum, S. aureus; format: cell-based, Staphylococcus aureus; details: clavulanate 4 μg/mL; Table S4
[9] = in vitro; details: monkey, plasma
[10] = system: Mtb H37Rv; experiment: MIC90 against nonreplicating (NR, 4-stress) Mtb H37Rv, with or without clavulanate; format: cell-based, Mycobacterium tuberculosis; details: 4-stress nonreplicating, Table S4
[11] = system: HepG2 cells; experiment: Cytotoxicity against HepG2 cells (CellTiter-Glo); format: cell-based, human; details: Table S4
Experimental: Compounds were tested for cytotoxicity against HepG2 cells as previously described.[48],[69],[70] Briefly, cells were exposed to compounds for 48–72 h, and viability was measured using CellTiter-Glo (Promega).

[12] = physchem; details: simulated gi fluid, pH 1.2
[13] = system: Mtb H37Rv; experiment: MIC90 against replicating (R) Mtb H37Rv, with or without clavulanate; format: cell-based, Mycobacterium tuberculosis; details: Table S4
[14] = system: C. albicans; experiment: Microbial spectrum, C. albicans; format: cell-based, Candida albicans; details: no clavulanate; Table S4
[15] = in vitro; details: human, plasma, pH 7.4, % bound to plasma
[16] = in vitro; details: human
[17] = in vitro; details: beagle, dog, plasma, pH 7.4
[18] = in vitro; details: male, CD-1, mouse, plasma, Plasma stability % Remaining
[19] = system: wild-type Mtb H37Rv; format: in vivo, 129sv DHP-1 knockout mice; details: 50 mg/kg sc bid + clavulanate 100 mg/kg po bid, days 9-15, lungs day 16; untreated day 16 mean 9.1
[20] = physchem; details: simulated gi fluid, pH 6.5, FaSSIF Stability, % remaining
[21] = in vivo; details: DHP-1 knockout, mouse, sc, 50 mg/kg
[22] = in vivo; details: female, CD-1, mouse
[23] = female, 129sv DHP-1 knockout, mouse, in vivo
[24] = system: Caco-2 cells
[25] = in vitro; details: CD-1, mouse, plasma, pH 7.4, % bound to plasma
[26] = system: P. aeruginosa; experiment: Microbial spectrum, P. aeruginosa; format: cell-based, Pseudomonas aeruginosa; details: clavulanate 4 μg/mL; Table S4
[27] = in vitro; details: SD, rat, plasma, pH 7.4, % bound to plasma

In the case of `O=C(O)C1=C(CSc2cccc[n+]2[O-])CS[C@@H]2[C@H](NC(=O)/C(=N\Oc3ccccc3)c3ccco3)C(=O)N12` [TBBL-0000005], the “Comments (tolerability)” value [1] is reported as “No side effects”, the Tlast [1] is reported as 2.0 to 4.0 h and the AUC(0-t) [2] is reported as 7920 ng·h/mL. It also gave a Cmax [2] of 4130 ng/mL, a Tmax [2] of 30 min and a remaining at 2 h, 2 μM [3] of 35.2%. For the same compound, the remaining at 2 h, 2 μM [4] was 51.3%, the remaining at 2 h, 2 μM [5] was 73.7% and the E.coli R + CLAV (MIC90) [6] was > 100 µM. The fraction unbound at 4 h, 2 μM [7] was 0.06, the S.aureus R + CLAV (MIC90) [8] was 0.8 µM and the remaining at 2 h, 2 μM [9] was 108%. The Mtb H37Rv NR + CLAV (MIC90) ([10]; clavulanate 4 μg/mL) was 1.5 µM, the Mtb H37Rv NR (MIC90) ([10]; no clavulanate) was 1.8 µM and the HepG2 LD50 [11] was 88.7 µM. For the same compound, the remaining at 1 h, 10 μM [12] was 120%, the remaining at 24 h, 10 μM [12] was 76.6% and the Mtb H37Rv R + CLAV (MIC90) ([13]; clavulanate 4 μg/mL) was 2.7 µM. For the same compound, the Mtb H37Rv R (MIC90) ([13]; no clavulanate) was 2.9 µM, the C.albicans R (MIC90) [14] was > 100 µM and the fraction unbound at 4 h, 2 μM [15] was 0.129. For the same compound, the Papp A→B at 120 min, 3 μM ([16]; Caco-2, pH 7.4) was < 0.33 ×10⁻⁶ cm/s, the Papp B→A at 120 min, 3 μM ([16]; Caco-2, pH 7.4) was < 0.28 ×10⁻⁶ cm/s and the recovery at 120 min, 3 μM ([16]; Caco-2, pH 7.4, Caco-2 Mean Recovery % A to B) was < 88.9%. For the same compound, the recovery at 120 min, 3 μM ([16]; Caco-2, pH 7.4, Caco-2 Mean Recovery % B to A) was < 89.8%, the fraction unbound at 4 h, 2 μM [17] was 0.186 and the remaining at 2 h, 2 μM [18] was 60.6%. The “Log10 CFU per mouse (lungs), Mean” value [19] was 8.9 Log10 CFU, the remaining at 6 h, 10 μM ([20]; 6h) was 98.7% and the remaining at 24 h, 10 μM ([20]; 24h) was 98.5%. The AUC(0-t) [21] was 18200 ± 7180 ng·h/mL, the Cmax [21] was 26600 ± 10000 ng/mL and the Tmax [21] was 15 to 30 min. It also gave an AUC(0-t) ([22]; iv, 5 mg/kg) of 3330 ng·h/mL, a Vd ([22]; iv, 5 mg/kg) of 0.23 L/kg and a clearance ([22]; iv, 5 mg/kg) of 5 mL/min/kg. It also gave a half-life ([22]; iv, 5 mg/kg) of 32.4 min, a k el ([22]; iv, 5 mg/kg) of 0.000356 s⁻¹ and an AUC(0-t) ([22]; po, 25 mg/kg) of 97 ng·h/mL. For the same compound, the bioavailability ([22]; po, 25 mg/kg) was 0.11%, the Tlast [23] was 6.0 h and the “Caco-2 Rank Papp” value [24] was “Low”. The fraction unbound at 4 h, 2 μM [25] was 0.06, the P.aeruginosa R + CLAV (MIC90) [26] was > 100 µM and the fraction unbound at 4 h, 2 μM [27] was 0.121.
